ChEMBL document CHEMBL3797164, “Transfer of SAR information from hypotensive indazole to indole derivatives acting at α-adrenergic receptors: In vitro and in vivo studies” (Eur J Med Chem, 2016)

Experiments:
Nischarin = Nischarin (Rattus norvegicus, UniProt Q4G017); assay: Displacement of [3H]clonidine from Imidazoline receptor 1 in Sprague-Dawley rat kidney P2 membranes after […] by liquid scintillation counting
[1] = target: T1, Adrenergic receptor alpha-1 (Rattus norvegicus, UniProt P15823+P23944+P43140); assay: Displacement of [3H]prazosine from Alpha-1 adrenergic receptor in Sprague-Dawley rat brain P2 membranes after […] by liquid scintillation counting
T1 sequence (P15823 whole entry): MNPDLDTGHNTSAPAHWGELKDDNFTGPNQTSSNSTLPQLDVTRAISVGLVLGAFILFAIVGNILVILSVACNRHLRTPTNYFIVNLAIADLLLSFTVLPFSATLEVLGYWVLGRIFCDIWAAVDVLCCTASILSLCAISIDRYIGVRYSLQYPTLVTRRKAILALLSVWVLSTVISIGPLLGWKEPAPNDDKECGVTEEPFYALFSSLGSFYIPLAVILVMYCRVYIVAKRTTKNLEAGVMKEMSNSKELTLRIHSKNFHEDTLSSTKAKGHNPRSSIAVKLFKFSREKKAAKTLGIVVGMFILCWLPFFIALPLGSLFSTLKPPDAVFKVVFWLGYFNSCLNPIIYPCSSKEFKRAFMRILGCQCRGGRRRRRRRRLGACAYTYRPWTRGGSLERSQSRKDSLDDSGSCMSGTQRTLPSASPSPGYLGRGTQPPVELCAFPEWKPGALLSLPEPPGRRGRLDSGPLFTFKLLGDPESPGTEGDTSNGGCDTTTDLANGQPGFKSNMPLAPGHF
T1 sequence (P23944 whole entry): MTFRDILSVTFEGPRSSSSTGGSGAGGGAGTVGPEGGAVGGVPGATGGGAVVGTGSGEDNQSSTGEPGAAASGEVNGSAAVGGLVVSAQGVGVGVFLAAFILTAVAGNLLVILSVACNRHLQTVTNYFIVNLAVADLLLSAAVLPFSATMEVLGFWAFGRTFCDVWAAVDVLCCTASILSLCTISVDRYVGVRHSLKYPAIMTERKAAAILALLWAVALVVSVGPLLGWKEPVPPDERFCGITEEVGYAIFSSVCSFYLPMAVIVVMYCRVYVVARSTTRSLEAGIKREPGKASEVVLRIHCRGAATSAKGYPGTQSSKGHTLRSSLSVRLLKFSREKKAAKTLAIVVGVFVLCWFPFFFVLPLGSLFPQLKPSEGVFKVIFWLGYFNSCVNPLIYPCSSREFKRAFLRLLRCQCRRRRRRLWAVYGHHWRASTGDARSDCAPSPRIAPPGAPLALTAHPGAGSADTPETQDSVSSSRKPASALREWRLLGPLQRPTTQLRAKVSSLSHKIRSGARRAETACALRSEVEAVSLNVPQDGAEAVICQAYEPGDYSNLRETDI
T1 sequence (P43140 whole entry): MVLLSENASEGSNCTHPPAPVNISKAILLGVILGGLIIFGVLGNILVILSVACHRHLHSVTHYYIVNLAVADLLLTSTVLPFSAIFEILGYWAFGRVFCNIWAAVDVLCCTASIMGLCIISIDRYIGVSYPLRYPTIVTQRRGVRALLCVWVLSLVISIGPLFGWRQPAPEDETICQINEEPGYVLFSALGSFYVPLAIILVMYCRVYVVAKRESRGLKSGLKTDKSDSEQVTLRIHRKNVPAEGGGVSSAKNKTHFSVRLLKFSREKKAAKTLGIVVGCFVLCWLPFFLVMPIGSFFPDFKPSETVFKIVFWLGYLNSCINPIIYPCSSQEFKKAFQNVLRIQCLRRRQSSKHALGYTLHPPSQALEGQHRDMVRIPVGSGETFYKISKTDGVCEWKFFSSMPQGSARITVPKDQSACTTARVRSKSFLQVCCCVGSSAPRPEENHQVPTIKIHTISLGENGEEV

[2] = Displacement of [3H]2BFI from Imidazoline receptor 2 in Sprague-Dawley rat brain P2 membrans after […] by liquid scintillation counting
[3] = target: T2, Adrenergic receptor alpha-2 (Rattus norvegicus, UniProt P22086+P19328+P22909); assay: Displacement of [3H]RX821002 from Alpha-2 adrenergic receptor in Sprague-Dawley rat brain P2 membranes after […] by liquid scintillation counting
T2 sequence (P22086 whole entry): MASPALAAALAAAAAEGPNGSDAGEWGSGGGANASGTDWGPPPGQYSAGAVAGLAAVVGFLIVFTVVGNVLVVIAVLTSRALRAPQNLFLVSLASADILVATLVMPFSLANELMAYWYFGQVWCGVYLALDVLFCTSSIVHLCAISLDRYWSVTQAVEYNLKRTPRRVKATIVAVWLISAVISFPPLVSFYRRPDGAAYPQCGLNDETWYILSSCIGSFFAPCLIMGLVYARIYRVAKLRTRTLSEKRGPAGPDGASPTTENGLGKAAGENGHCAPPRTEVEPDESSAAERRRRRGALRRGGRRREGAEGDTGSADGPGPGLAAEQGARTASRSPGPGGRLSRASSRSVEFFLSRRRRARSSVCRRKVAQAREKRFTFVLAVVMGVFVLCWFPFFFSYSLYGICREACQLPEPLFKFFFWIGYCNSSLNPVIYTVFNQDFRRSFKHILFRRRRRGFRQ
T2 sequence (P19328 whole entry): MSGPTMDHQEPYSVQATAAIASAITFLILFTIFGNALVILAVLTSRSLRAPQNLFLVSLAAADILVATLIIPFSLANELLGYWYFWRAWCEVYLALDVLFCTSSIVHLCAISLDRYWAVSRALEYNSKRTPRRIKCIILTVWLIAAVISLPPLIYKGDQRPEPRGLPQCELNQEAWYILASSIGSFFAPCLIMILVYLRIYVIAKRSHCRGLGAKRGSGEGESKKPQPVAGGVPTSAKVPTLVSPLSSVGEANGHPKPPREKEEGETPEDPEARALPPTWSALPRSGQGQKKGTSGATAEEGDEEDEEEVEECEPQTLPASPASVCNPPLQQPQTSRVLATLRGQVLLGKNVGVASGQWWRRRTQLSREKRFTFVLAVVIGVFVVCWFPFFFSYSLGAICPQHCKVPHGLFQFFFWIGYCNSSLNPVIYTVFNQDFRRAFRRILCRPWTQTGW
T2 sequence (P22909 whole entry): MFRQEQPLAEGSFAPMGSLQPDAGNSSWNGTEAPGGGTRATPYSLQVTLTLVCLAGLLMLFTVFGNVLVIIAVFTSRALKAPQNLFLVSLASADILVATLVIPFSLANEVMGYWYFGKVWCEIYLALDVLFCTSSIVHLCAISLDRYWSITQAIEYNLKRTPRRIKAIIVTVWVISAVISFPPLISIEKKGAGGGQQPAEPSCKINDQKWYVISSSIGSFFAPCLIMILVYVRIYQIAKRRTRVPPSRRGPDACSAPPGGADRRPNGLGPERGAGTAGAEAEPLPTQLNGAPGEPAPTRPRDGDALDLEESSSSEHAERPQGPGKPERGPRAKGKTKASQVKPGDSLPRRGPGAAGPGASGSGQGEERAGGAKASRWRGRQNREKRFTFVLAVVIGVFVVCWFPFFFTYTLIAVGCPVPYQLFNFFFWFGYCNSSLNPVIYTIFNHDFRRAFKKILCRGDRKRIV

Sequence of Nischarin (Q4G017 whole entry): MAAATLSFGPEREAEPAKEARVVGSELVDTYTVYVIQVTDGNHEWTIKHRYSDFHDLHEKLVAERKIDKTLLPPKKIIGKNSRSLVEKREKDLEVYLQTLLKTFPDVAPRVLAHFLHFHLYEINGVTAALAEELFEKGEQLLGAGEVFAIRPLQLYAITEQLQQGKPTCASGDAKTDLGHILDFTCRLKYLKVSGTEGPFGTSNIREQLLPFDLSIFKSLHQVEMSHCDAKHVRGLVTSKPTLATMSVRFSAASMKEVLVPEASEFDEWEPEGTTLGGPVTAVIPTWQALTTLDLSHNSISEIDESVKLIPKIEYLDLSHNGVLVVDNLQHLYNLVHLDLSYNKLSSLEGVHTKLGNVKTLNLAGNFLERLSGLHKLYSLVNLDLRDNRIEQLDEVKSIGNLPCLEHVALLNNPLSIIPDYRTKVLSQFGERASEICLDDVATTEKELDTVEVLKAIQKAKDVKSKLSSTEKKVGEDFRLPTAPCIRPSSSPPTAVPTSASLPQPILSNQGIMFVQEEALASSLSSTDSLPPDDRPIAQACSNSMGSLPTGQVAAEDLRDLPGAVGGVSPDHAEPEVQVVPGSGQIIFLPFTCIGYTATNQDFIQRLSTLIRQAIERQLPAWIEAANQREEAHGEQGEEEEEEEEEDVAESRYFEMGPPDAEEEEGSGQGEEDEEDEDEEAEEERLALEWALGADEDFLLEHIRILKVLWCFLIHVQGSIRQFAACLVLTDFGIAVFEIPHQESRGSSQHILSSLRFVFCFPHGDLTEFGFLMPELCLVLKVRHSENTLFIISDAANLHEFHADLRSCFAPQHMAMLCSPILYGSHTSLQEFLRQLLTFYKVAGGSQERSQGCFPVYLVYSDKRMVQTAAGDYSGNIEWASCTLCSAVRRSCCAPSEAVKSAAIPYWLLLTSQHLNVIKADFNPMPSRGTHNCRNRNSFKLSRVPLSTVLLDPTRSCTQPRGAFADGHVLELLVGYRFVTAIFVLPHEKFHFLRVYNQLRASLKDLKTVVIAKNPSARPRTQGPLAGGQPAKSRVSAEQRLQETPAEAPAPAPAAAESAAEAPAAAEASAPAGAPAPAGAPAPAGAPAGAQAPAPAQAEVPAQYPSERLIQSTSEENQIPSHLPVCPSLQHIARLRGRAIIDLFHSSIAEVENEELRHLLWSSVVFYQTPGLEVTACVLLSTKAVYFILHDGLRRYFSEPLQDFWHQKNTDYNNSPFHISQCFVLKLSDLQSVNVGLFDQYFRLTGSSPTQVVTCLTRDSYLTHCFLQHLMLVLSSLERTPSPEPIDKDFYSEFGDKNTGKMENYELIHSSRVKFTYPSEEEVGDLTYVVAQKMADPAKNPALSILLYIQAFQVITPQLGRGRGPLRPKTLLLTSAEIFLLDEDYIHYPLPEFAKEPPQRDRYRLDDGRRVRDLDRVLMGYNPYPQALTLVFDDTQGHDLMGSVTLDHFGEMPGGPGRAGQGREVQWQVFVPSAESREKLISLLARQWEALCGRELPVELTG

Compound | Ki (Nischarin) [nM] | Ki [1] [nM] | Ki [2] [nM] | Ki [3] [nM]
Cl.Fc1cccc2ccn(CC3=NCCN3)c12 | 9630 | 36.7 | 32.1 | 16.57
Cl.Clc1ccc2ccn(CC3=NCCN3)c2c1 | 5580 | 228.7 | 48.5 | 94.5
Brc1cccc2ccn(CC3=NCCN3)c12.Cl | 79.2 | 7.91 | 254 | 18.3
Br.COc1cccc2ccn(CC3=NCCN3)c12 | 588000 | 394.2 | 2470 | 280
Brc1cccc2c1ccn2CC1=NCCN1.Cl | 468 | 257.7 | 179 | 84.4
Brc1ccc2c(ccn2CC2=NCCN2)c1.Cl | 10500 | 1348 | 30.3 | 596.7
Br.c1ccc(COc2cccc3ccn(CC4=NCCN4)c23)cc1 | 36300 | 381.8 | 10400 | 5241
Cl.Fc1cccc2c1ccn2CC1=NCCN1 | 14600 | 27.56 | 249 | 46.97
Cl.Fc1ccc2c(ccn2CC2=NCCN2)c1 | 32.1 | 306.7 | 66.3 | 68.43
Cl.Fc1ccc2ccn(CC3=NCCN3)c2c1 | 789 | 87.83 | 240 | 15.9
CCc1cccc2ccn(CC3=NCCN3)c12.Cl | 45800 | 439.4 | 880 | 71.7
